The values that follow come from patent US8383647B2, “Quinoline derivative” (Takeda Pharmaceutical Company Limited, priority 2009, dated 2013).

Counter-ions that a name gives are not always drawn.

On to `COC(C)(C)CNCc1cnc2c(C)c(NC(=O)c3ccc(OC[C@@H]4CCCO4)cc3)ccc2c1` (as salt: hydrochloride) [Example 30, N-(3-{[(2-methoxy-2-methylpropyl)amino]methyl}-8-methylquinolin-7-yl)-4-[(2S)-tetrahydrofuran-2-ylmethoxy]benzamide dihydrochloride], for which the melting point lay in the range of 235 to 237 °C.

In turn, `Cc1c(NC(=O)c2ccc(OC[C@@H]3CCCO3)cc2)ccc2cc(CNCC3(O)CCCCC3)cnc12` (as salt: hydrochloride) [Example 41, N-[3-({[(1-hydroxycyclohexyl)methyl]amino}methyl)-8-methylquinolin-7-yl]-4-[(2S)-tetrahydrofuran-2-ylmethoxy]benzamide dihydrochloride] displayed a melting point of 242 to 244 °C. On to `Cc1c(NC(=O)c2ccc(OCC3CCCO3)cc2)ccc2cc(CNCC(C)(C)O)cnc12` (centres unmarked) [Example 1, N-(3-{[(2-hydroxy-2-methylpropyl)amino]methyl}-8-methylquinolin-7-yl)-4-(tetrahydrofuran-2-ylmethoxy)benzamide], for which the melting point came out at 138 °C. In the case of `Cc1c(NC(=O)c2ccc(OCC3CCCO3)cc2)ccc2cc(CN[C@H]3CCCC[C@@H]3O)cnc12` (stereo partly drawn) [Example 3, N-[3-({[(1S,2S)-2-hydroxycyclohexyl]amino}methyl)-8-methylquinolin-7-yl]-4-(tetrahydrofuran-2-ylmethoxy)benzamide] it was 197 °C. Under `Cc1c(NC(=O)c2ccc(OCC3CCOC3)cc2)ccc2cc(CNC(C)C)cnc12` (centres unmarked) [Example 7, N-(8-methyl-3-{[(1-methylethyl)amino]methyl}quinolin-7-yl)-4-(tetrahydrofuran-3-ylmethoxy)benzamide] stands 106 °C; under `Cc1c(NC(=O)c2ccc(OC[C@H]3CCCO3)cc2)ccc2cc(CN[C@H]3CC[C@@](C)(O)CC3)cnc12` [Example 53, N-(3-{[(cis-4-hydroxy-4-methylcyclohexyl)amino]methyl}-8-methylquinolin-7-yl)-4-[(2R)-tetrahydrofuran-2-ylmethoxy]benzamide], 163 to 164 °C. In the case of `Cc1c(NC(=O)c2ccc(OCC3CCOC3)cc2)ccc2cc(CNCC(C)C)cnc12` (centres unmarked) [Example 59, N-(8-methyl-3-{[(2-methylpropyl)amino]methyl}quinolin-7-yl)-4-(tetrahydrofuran-3-ylmethoxy)benzamide] it was 132 °C. `Cc1c(NC(=O)c2ccc(OCC3CCOC3)cc2)ccc2cc(CNCC(C)C)cnc12` (centres unmarked) [Example 60, N-(8-methyl-3-{[(2-methylpropyl)amino]methyl}quinolin-7-yl)-4-(tetrahydrofuran-3-ylmethoxy)benzamide] displayed a melting point of 130 to 131 °C. Consider `Cc1c(NC(=O)c2ccc(OCC3CCOC3)cc2)ccc2cc(CN[C@H]3CC[C@](C)(O)CC3)cnc12` (stereo partly drawn) [Example 64, N-(3-{[(trans-4-hydroxy-4-methylcyclohexyl)amino]methyl}-8-methylquinolin-7-yl)-4-(tetrahydrofuran-3-ylmethoxy)benzamide], for which the melting point lay in the range of 98 to 101 °C. Consider `COC(C)(C)CNCc1cnc2c(C)c(NC(=O)c3ccc(OCC4CCOC4)cc3)ccc2c1` (centres unmarked) [Example 65, N-(3-{[(2-methoxy-2-methylpropyl)amino]methyl}-8-methylquinolin-7-yl)-4-(tetrahydrofuran-3-ylmethoxy)benzamide], for which the melting point was 137 °C. In the case of `Cc1c(NC(=O)c2ccc(OCC3CCOC3)cc2)ccc2cc(CN3CCC(C)(O)CC3)cnc12` (centres unmarked) [Example 66, N-{3-[(4-hydroxy-4-methylpiperidin-1-yl)methyl]-8-methylquinolin-7-yl}-4-(tetrahydrofuran-3-ylmethoxy)benzamide] it was 160 to 162 °C.
